TGI and GI50 data for 14 compounds are collected here from PubChem BioAssay (NCI).

Where “and” joins values, the source holds several entries; their conditions need not be identical. Equal entries are not always repeated.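 Growth conditions: 96-well plates. Treatment: test compound, 48 hours, 5 concentrations. Analysis: linear interpolation between bracketing concentrations; unreached endpoints set to highest concentration. Here, GI50 denotes the concentration required for 50% inhibition of growth. TGI: concentration producing complete growth inhibition.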

Test systems include HOP-92 NSCLC; IGROV1 ovarian; MOLT-4 leukemia; M14 melanoma; SF-539 CNS; HCC-2998 colon; PC-3 prostate; MDA-MB-231 breast; 786-0 renal; SR leukemia.
What all share (assay): NCI anticancer screen, dose series, 48 h

`Cc1ccc(S(=O)(=O)SC/C=C\CSS(=O)(=O)c2ccc(C)cc2)cc1`: the TGI in the assay with HOP-92 NSCLC is > 72.7 µM and 37.9 µM; in the assay on IGROV1 ovarian, > 100 µM and 79.2 µM; with MOLT-4 leukemia, 14.6 µM and 72.6 µM; in the assay on M14 melanoma it was 68.6 µM and 33.5 µM; with SF-539 CNS, 43.6 µM and 33.3 µM; in the assay on HCC-2998 colon, over 100 µM. In addition, the TGI in the assay on PC-3 prostate was over 100 µM; in the assay with MDA-MB-231 breast, over 31.6 µM; in the assay on 786-0 renal, > 66.2 µM and 32.3 µM. For the same compound, in the assay with SF-539 CNS, the GI50 is 7 µM and 17.2 µM.

On to `CCOC(=O)Cc1nc2ccc3c(c2[nH]c1=O)C(=O)c1ccccc1C3=O`, for which the TGI with HOP-92 NSCLC was over 100 µM; in the assay on IGROV1 ovarian, over 100 µM; in the assay with MOLT-4 leukemia it was 54.2 µM; in the assay on M14 melanoma it was over 100 µM; with SF-539 CNS, over 100 µM; in the assay with HCC-2998 colon it was over 100 µM. Moreover, in the assay with 786-0 renal, the TGI was over 100 µM.

`C[N+](C)(C)CCC(=O)CC[N+](C)(C)C`: the TGI is over 100 µM with IGROV1 ovarian; 19.5 µM in the assay on MOLT-4 leukemia; 34.2 µM in the assay on M14 melanoma; 41 µM in the assay on SF-539 CNS; 53.9 µM in the assay with HCC-2998 colon; 46.5 µM in the assay on 786-0 renal.

As to `CCc1c(C#N)c(=O)[nH]c(=O)n1CCN1CCN(C(=O)NCCCCCCNC(=O)N2CCN(CCn3c(CC)c(C#N)c(=O)[nH]c3=O)CC2)CC1`, the TGI in the assay with IGROV1 ovarian, in the assay with MOLT-4 leukemia, in the assay on M14 melanoma, in the assay with SF-539 CNS, with HCC-2998 colon and in the assay with 786-0 renal was over 100 µM throughout.

With `CC[O-].CC[O-].O=C([CH-]C(=O)c1ccccc1)CCCCCCCCC(=O)[CH-]C(=O)c1ccccc1.[Ti+4]`, the GI50 in the assay with HOP-92 NSCLC was 67.5 µM; in the assay on IGROV1 ovarian it was over 100 µM; in the assay with MOLT-4 leukemia it was 53.9 µM; with M14 melanoma it was over 100 µM; in the assay with HCC-2998 colon, over 100 µM; in the assay with 786-0 renal it was over 100 µM. The TGI in the assay with HOP-92 NSCLC, with IGROV1 ovarian, with MOLT-4 leukemia, in the assay on M14 melanoma, with HCC-2998 colon and in the assay with 786-0 renal was over 100 µM each time.

As for `C/C=C/C(C#N)O[Si](C)(C)C` (centres undefined), the TGI with HOP-92 NSCLC, with IGROV1 ovarian, in the assay on MOLT-4 leukemia, in the assay with M14 melanoma, in the assay with SF-539 CNS and in the assay on HCC-2998 colon was over 100 µM throughout. The compound also came in with a TGI in the assay with 786-0 renal of over 100 µM.

Turning to `COC(=O)c1sc(C(=O)OC)c2c1CS(=O)C2`, the TGI with HOP-92 NSCLC, in the assay with IGROV1 ovarian, in the assay on MOLT-4 leukemia, with M14 melanoma, in the assay on SF-539 CNS and with HCC-2998 colon was over 100 µM each time. For the same compound, in the assay with 786-0 renal, the TGI is over 100 µM.

In the case of `COC1=NCc2ccccc2-c2ccccc21`, the TGI with MOLT-4 leukemia, in the assay on SF-539 CNS and in the assay on 786-0 renal was over 100 µM each time.

`O=C1/C(=C/c2ccc([N+](=O)[O-])cc2)CN(C(=O)CCN2CCC(=NO)CC2)C/C1=C\c1ccc([N+](=O)[O-])cc1`: the GI50 in the assay with HOP-92 NSCLC is 2.81 µM; in the assay on IGROV1 ovarian, 0.817 µM; in the assay on MOLT-4 leukemia it was 0.409 µM; in the assay with M14 melanoma, 1.51 µM; in the assay on SF-539 CNS, 0.969 µM; with HCC-2998 colon, 1 µM. In addition, the GI50 with PC-3 prostate was 0.583 µM; in the assay with MDA-MB-231 breast, 0.869 µM; with 786-0 renal, 1.06 µM. The TGI in the assay with HOP-92 NSCLC is 9.36 µM; in the assay with IGROV1 ovarian, 2.75 µM; in the assay with MOLT-4 leukemia, over 20 µM; in the assay on M14 melanoma it was 6.4 µM; in the assay with SF-539 CNS, 2.91 µM; in the assay on HCC-2998 colon it was 2.62 µM. The TGI with PC-3 prostate came out at 2.38 µM; in the assay on MDA-MB-231 breast, 2.92 µM; in the assay with 786-0 renal it was 3.66 µM.

For `CCCN1C(=O)NC(=O)C(CC)(N2C(=O)c3c(F)c(F)c(F)c(F)c3C2=O)C1=O` (centres undefined), the GI50 was 1.68 µM in the assay with HOP-92 NSCLC; 1.58 µM in the assay on IGROV1 ovarian; 2.71 µM in the assay on MOLT-4 leukemia; 2.2 µM in the assay on M14 melanoma; 1.92 µM in the assay with SF-539 CNS; 1.8 µM in the assay with HCC-2998 colon. Also, the GI50 in the assay with PC-3 prostate was 1.95 µM; with MDA-MB-231 breast it was 1.99 µM; in the assay on 786-0 renal, 2.66 µM. The TGI in the assay with HOP-92 NSCLC stood at 3.37 µM; with IGROV1 ovarian, 3.67 µM; in the assay with MOLT-4 leukemia it was 8.65 µM; in the assay on M14 melanoma, 6.37 µM; in the assay with SF-539 CNS, 4.14 µM; in the assay on HCC-2998 colon it was 3.93 µM. Also, the results for the TGI with PC-3 prostate, in the assay on MDA-MB-231 breast and in the assay with 786-0 renal were 5.62 µM, 4.59 µM and 7.75 µM, respectively.

Consider `O=C(Oc1cccnc1)c1cccnc1Nc1ccnc(C(F)(F)F)c1`, for which the GI50 in the assay with HOP-92 NSCLC was over 100 µM; in the assay with IGROV1 ovarian, 9.51 µM; with MOLT-4 leukemia it was 3.87 µM; in the assay with HCC-2998 colon it was 16.8 µM; in the assay with PC-3 prostate it was 7.03 µM; with MDA-MB-231 breast, 14.1 µM. In addition, the GI50 in the assay on 786-0 renal is 5.17 µM. Also, the TGI is over 100 µM with HOP-92 NSCLC; over 100 µM with IGROV1 ovarian; 23.8 µM in the assay with MOLT-4 leukemia; 35.3 µM with HCC-2998 colon; 56.1 µM with PC-3 prostate; over 100 µM in the assay with MDA-MB-231 breast. Besides, the TGI in the assay with 786-0 renal was found to be 22.4 µM.

Regarding `CCC1(O)C(=O)OCc2c1cc1n(c2=O)Cc2cc3ccccc3nc2-1` (centres undefined), the TGI was 23.9 µM in the assay on HOP-92 NSCLC; 5.96 µM with IGROV1 ovarian; 0.0271 µM in the assay on M14 melanoma; over 100 µM with SF-539 CNS; 11.2 µM with HCC-2998 colon; 23.9 µM in the assay on PC-3 prostate. Besides, the TGI in the assay on MDA-MB-231 breast is 7.06 µM; in the assay with 786-0 renal, 0.203 µM. For the same compound, the GI50 in the assay on SF-539 CNS is 0.0107 µM.

Turning to `O=C1Nc2ccccc2C1(O)C/C(=N/O)c1ccc2ccccc2c1` (centres undefined), the TGI with MOLT-4 leukemia, in the assay with M14 melanoma, in the assay with SF-539 CNS, in the assay on HCC-2998 colon and in the assay with 786-0 renal was over 100 µM each time.

Take `CCOC(=O)NC(=O)c1cn(CCN2CCN(C(=O)NCCCCCCNC(=O)N3CCN(CCn4cc(C(=O)NC(=O)OCC)c(=O)[nH]c4=O)CC3)CC2)c(=O)[nH]c1=O`: the TGI in the assay with HOP-92 NSCLC, in the assay on IGROV1 ovarian, in the assay on M14 melanoma, in the assay on SF-539 CNS, in the assay on SR leukemia and in the assay with HCC-2998 colon was over 100 µM each time. Further, the TGI in the assay on 786-0 renal was over 100 µM.
